Activity calls are given as the source filed them. The calls are words filed in the database; no cut-off is given here.
What was measured:
3T3-L1 [1] = assay: Anti-adipogenic activity against mouse 3T3-L1 cells at terminal differentiation stage assessed as decrease in triglyceride level at 1 uM and measured on 6 to 9 days by Oil Red O staining based spectroscopic analysis; format: functional, cell-based; details: time 6-9 day
3T3-L1 [2] = assay: Anti-adipogenic activity against mouse 3T3-L1 cells assessed as decrease in triglyceride level at 0.01 to 10 uM by Oil Red O staining based microscopic analysis; format: functional, cell-based; details: dose 0.01-10 µM
3T3-L1 [3] = assay: Anti-adipogenic activity against mouse 3T3-L1 cells assessed as downregulation of FAS mRNA expression level at 0.1 to 1 uM incubated for 6 days by RT-qPCR analysis; format: functional, cell-based; details: dose 0.1-1 µM, time 6.0 day
Mus musculus [4] = assay: Anti-obesity activity in high fat diet-induced obese C57BL/6J mouse assessed as decrease in body weight at 40 mg/kg, ip administered every two days for 46 days (Rvb=52.5%); format: functional; design: scale not given: the % may be the effect or the level left; details: time 46 day
Mus musculus [5] = assay: Anti-obesity activity in high fat diet-induced obese C57BL/6J mouse assessed as reduction in visceral fat content by measuring inguen white adipose tissue weight at 40 mg/kg, ip administered every two days for 46 days; format: functional, organism-based; details: time 46.0 day
Mus musculus [6] = assay: Anti-obesity activity in high fat diet-induced obese C57BL/6J mouse assessed as decrease in size of adipocytes in epididymis white adipose tissue at 40 mg/kg, ip administered every two days for 46 days by H and E staining based microscopy; format: functional, organism-based; details: time 46.0 day
Mus musculus [7] = assay: Anti-obesity activity in high fat diet-induced obese C57BL/6J mouse model assessed as change in daily food uptake at 40 mg/kg, ip administered every two days for 46 days; format: functional, organism-based; details: time 46.0 day
[8] = biological target: Serine/threonine-protein kinase mTOR (Mus musculus) (UniProt Q9JLN9); assay: Inhibition of mTOR signalling in mouse 3T3-L1 cells assessed as upregulation of ATG5 expression level at 0.1 to 10 uM incubated for 24 hrs by Western blot analysis; format: cell-based; details: dose 0.1-10 µM
Mus musculus [9] = assay: In vivo inhibition of mTOR signalling in high fat diet-induced obese C57BL/6J mouse model assessed as decrease in mTOR phosphorylation at S2481 in liver at 40 mg/kg, ip administered every two days for 46 days by Western blot analysis; format: functional, organism-based; details: time 46.0 day
mTORC1 (Mus musculus) [10] = biological target: mTORC1 (Mus musculus) (UniProt Q9JLN9); assay: Inhibition of mTORC1 formation in mouse 3T3-L1 cells assessed as decrease in Raptor/mTOR interaction at 10 uM incubated for 24 hrs by reciprocal co-immunoprecipitation assay; format: cell-based
mTORC1 (Mus musculus) [11] = biological target: mTORC1 (Mus musculus) (UniProt Q9JLN9); assay: Inhibition of mTORC1 formation in siRNA mediated Raptor knockdown mouse 3T3-L1 cells assessed as decrease in phosphorylaed-S6K1 expression level at 10 uM incubated for 24 hrs by Western blot analysis; format: cell-based
mTORC1 (Mus musculus) [12] = biological target: mTORC1 (Mus musculus) (UniProt Q9JLN9); assay: Inhibition of mTORC1 formation in siRNA mediated Raptor knockdown mouse 3T3-L1 cells assessed as decrease in 4E-BP1 expression level at 10 uM incubated for 24 hrs by Western blot analysis; format: cell-based
3T3-L1 [13] = assay: Anti-adipogenic activity in mouse 3T3-L1 cells assessed as increase in co-localization of lipid droplets and autophagolysosomes at 10 uM by Bodipy and LysoTracker staining based immunofluorescence analysis; format: functional, cell-based
[14] = biological target: Regulatory-associated protein of mTOR (Mus musculus) (UniProt Q8K4Q0); assay: Binding affinity to Raptor in mouse 3T3-L1 cells assessed thermal stabilization at 10 uM incubated 30 mins by […] analysis
Sequence of Regulatory-associated protein of mTOR (Mus musculus) (Q8K4Q0 whole entry, looked up): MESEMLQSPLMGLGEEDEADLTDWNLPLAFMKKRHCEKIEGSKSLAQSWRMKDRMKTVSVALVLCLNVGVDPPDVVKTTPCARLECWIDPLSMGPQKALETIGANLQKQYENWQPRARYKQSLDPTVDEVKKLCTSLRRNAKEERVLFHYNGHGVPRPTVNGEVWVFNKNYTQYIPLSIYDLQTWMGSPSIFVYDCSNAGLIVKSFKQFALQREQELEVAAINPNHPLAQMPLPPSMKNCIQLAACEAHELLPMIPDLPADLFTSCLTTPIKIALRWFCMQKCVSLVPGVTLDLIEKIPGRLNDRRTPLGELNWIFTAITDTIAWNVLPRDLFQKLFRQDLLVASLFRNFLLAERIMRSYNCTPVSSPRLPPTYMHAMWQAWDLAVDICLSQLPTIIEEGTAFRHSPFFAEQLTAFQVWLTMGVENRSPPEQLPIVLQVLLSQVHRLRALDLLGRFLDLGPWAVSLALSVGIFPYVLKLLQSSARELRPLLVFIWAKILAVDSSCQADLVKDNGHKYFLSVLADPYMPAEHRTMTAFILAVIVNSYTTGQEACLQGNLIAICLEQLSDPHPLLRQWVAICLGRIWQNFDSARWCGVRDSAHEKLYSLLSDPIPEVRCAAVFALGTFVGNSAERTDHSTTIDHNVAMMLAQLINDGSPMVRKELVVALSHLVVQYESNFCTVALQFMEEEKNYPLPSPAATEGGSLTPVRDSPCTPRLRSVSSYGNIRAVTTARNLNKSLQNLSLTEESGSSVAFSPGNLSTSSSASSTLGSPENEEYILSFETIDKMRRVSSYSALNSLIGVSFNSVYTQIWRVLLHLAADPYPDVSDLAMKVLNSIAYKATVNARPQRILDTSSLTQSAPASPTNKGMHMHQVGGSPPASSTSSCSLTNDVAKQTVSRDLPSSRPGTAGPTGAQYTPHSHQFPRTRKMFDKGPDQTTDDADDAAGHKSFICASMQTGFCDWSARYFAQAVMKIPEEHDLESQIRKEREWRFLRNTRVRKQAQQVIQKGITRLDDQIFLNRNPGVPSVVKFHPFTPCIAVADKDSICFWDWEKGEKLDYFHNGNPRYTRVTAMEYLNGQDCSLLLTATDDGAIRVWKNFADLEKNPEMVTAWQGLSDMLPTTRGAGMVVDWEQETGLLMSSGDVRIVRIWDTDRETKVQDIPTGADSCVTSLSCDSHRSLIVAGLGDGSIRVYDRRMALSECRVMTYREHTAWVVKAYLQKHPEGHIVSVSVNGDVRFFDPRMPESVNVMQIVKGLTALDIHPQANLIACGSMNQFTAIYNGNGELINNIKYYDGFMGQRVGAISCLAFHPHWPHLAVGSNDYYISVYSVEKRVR

inhibition [8]: Active
inhibition (mTORC1 (Mus musculus) [10]): inactive
inhibition (mTORC1 (Mus musculus) [11]): Active
inhibition (mTORC1 (Mus musculus) [12]): Active
Activity [14]: Active
SMILES: C=C(C)[C@@]12OC3(c4ccccc4)O[C@@H]1[C@@H]1[C@H](O)[C@](Cl)(COC(=O)c4ccccc4)[C@@H](O)[C@]4(O)C(=O)C(C)=C[C@H]4[C@@]1(O3)[C@H](C)[C@H]2OC(C)=O
Activity (3T3-L1 [1]): Active
Activity (3T3-L1 [2]): Active
Activity (3T3-L1 [3]): Active
Activity (Mus musculus [4]): 26.8%
Activity (Mus musculus [5]): Active
Activity (Mus musculus [6]): Active
Activity (Mus musculus [7]): inactive
inhibition (Mus musculus [9]): Active
Activity (3T3-L1 [13]): inactive

Reference: ChEMBL document CHEMBL5380850, “Discovery of the First Raptor (Regulatory-Associated Protein of mTOR) Inhibitor as a New Type of Antiadipogenic Agent” (J Med Chem, 2023)
